Test results: patent publication US11583524B2, “Inhibitors of the interaction between MDM2 and P53” (Janssen Pharmaceutica NV, priority 2007, dated 2023)
Where a name gives a salt, the structure may show the parent alone.

What was measured:
p53 in A2780 cells = assay: p53 ELISA (preservation of p53 in A2780 cells); type: cell-based, human; settings: lowest dose giving at least 140% of the p53 value in the control, 16 hours treatment; for minimal effective concentration: Homo sapiens, read-out: p53-elisa LAD
Description: The capacity of the compounds to preserve p53 in A2780 cells was measured with the p53 enzyme linked immunosorbent assay (ELISA). The p53 assay is a “sandwich” enzyme immunoassay employing two polyclonal antibodies. A polyclonal antibody, specific for the p53 protein, has been immobilized onto the surface of the plastic wells. Any p53 present in the sample to be assayed will bind to the capture antibody. The biotinylated detector polyclonal antibody also recognizes p53 protein, and will bind to any p53, which has been retained by the capture antibody. The detector antibody, in turn, is bound by horseradish peroxidase-conjugated streptavidin. The horseradish peroxidase catalyses the conversion of the chromogenic substrate o-phenylene diamine, the intensity of which is proportional to the amount of p53 protein bound to the plate. The coloured reaction product is quantified using a spectrophotometer. Quantitation is achieved by the construction of a standard curve using known concentrations of purified recombinant HIS tagged p53 protein (see example C.1).
A2780 cells (ATCC) were cultivated in RPMI 1640 supplemented with 10% fetal calf serum (FCS), 2 mM L-glutamine and gentamycin at 37° C. in a humidified incubator with 5% CO2.
A2780 cells were seeded at 20.000 cells per well in a 96 well plate, cultured for 24 hours and treated with compound for 16 hours at 37° C. in a humidified incubator. After incubation, the cells were washed once with phosphate-buffered saline and 30 μl, per well, low salt RIPA buffer (20 mM tris, pH7.0, 0.5 mM EDTA, 1% Nonidet P40, 0.5% DOC, 0.05% SDS, 1 mM PMSF, 1 μg/ml aprotinin and 0.5 μ/ml leupeptin) was added. Plates were placed on ice for 30 minutes to complete the lysis. p53 protein was detected in de lysates by using the sandwich ELISA, described below.
High binding polystyrene EIA/RIA 96 well plates (Costar 9018) were coated with the capture antibody pAb1801 (Abcam ab28-100) at a concentration of 1 μg/ml in coating buffer (0.1 M NaHCO3 pH8.2), 50 μl per well. The antibody was allowed to adhere overnight at 4° C. Coated plates were washed once with phosphate-buffered saline (PBS)/0.05% Tween 20 and 300 μl of blocking buffer (PBS, 1% bovine serum albumins (BSA)) was added, for an incubation period of 2 hours at room temperature. Dilutions of purified recombinant HIS tagged p53 protein, ranging from 3-200 ng/ml, were made in blocking buffer and used as standards.
Plates were washed twice with PBS/0.05% Tween 20 and blocking buffer or standards were added at 80 μl/well. To the standards, 20 μl of lysis buffer was added. The samples were added to the other wells at 20 μl lysate/well. After an overnight incubation at 4° C., plates were washed twice with PBS/0.05% Tween 20. Aliquots of 100 μl secondary polyclonal antibody p53(FL-393) (Tebubio, sc-6243) at a concentration of 1 μg/ml in blocking buffer were added to each well and allowed to adhere for 2 hours at room temperature. Plates were washed three times with PBS/0.05% Tween 20. Detection antibody anti-rabbit HRP (sc-2004, Tebubio) at 0.04 μg/ml in PBS/1% BSA was added and incubated for 1 hour at room temperature. Plates were washed three times with PBS/0.05% Tween 20 and 100 μl of substrate buffer was added (substrate buffer was prepared shortly before use by adding 1 tablet of 10 mg o-phenylene diamine (OPD) from Sigma and 125 μl 3% H2O2 to 25 ml OPD buffer: 35 mM citric acid, 66 mM Na2HPO4, pH5.6). After 5 to 10 minutes, colour reaction was stopped by adding 50 μl stop buffer (1 M H2SO4) per well. The absorbance at dual wavelengths of 490/655 nm was measured using a Biorad micro plate reader and the results were then analyzed.
For each experiment, controls (containing no drug) and a blank incubation (containing no cells or drugs) were run in parallel. The blank value was subtracted from all control and sample values. For each sample, the value of p53 (in absorbance units) was expressed as the percentage of the value for p53 present in the control. […]

[1] = tested on: A2780 ovarian cancer cells; assay: Alamar Blue cell proliferation assay, A2780; type: cell-based, human; settings: 4-day incubation; for IC50: Homo sapiens, 96 h, read-out: A2780 cell proliferation inhibition pIC50 (converted)
Description: Cellular activity of the compounds of formula (I) was determined on A2780 tumour cells using a colorimetric assay for cell toxicity or survival (see example C.2).
The human A2780 ovarian cancer cells were a kind gift from Dr. T. C. Hamilton (Fox Chase Cancer Centre, Pennsylvania, U.S.A.). The cells were cultured in RPMI 1640 medium supplemented with 2 mM L-Glutamine, 50 μg/ml gentamicin and 10% fetal calf serum.
(§1) Resazurin was purchased from Aldrich (Prod. No. 199303). Potassium ferrocyanide, potassium ferricyanide, KH2PO4 and K2HPO4 were purchased from Sigma (Prod. Nos. P9387, P8131, P5655 and P8281, respectively).
(§2) Potassium Phosphate Buffer 0.1 M (PPB) was made as follows: 2.72 gram KH2PO4 and 13.86 gram K2HPO4 were dissolved in 500 ml milli-Q H2O, the pH was adjusted to pH 7.4 and the volume was brought to 1 litre with milli-Q H2O; the buffer was filter sterilised and stored at room temperature. Resazurin stock solution (PPB-A) was prepared fresh by dissolving 45 mg resazurin in 15 ml PBS. 30 mM potassium ferricyanide (PPB-B) was prepared by dissolving 0.987 gram potassium ferricyanide in 100 ml PPB. 30 mM potassium ferrocyanide (PPB-C) was prepared by dissolving 1.266 gram potassium ferrocyanide in 100 ml PPB.
(§3) Mixture of PPB-A, PPB-B and PPB-C was prepared by mixing equal volumes of the respective solutions. Resazurin work solution (herein termed “Alamar Blue” solution) was prepared by diluting said mixture 20×(vol/vol) in PPB and filter sterilising; the Alamar Blue solution could be kept at 4° C. for a maximum of 2 weeks.
(§4) For experiments in 384 wells plates the cells were seeded at a density of 5×10^3 cells/ml in Falcon 384-well culture plates (Life Technologies, Merelbeke, Belgium), black with clear bottom, in 45 μl culture medium. Cells were allowed to adhere to plastic for 24 hr. The tested compound was pre-diluted (1/50 in culture medium) and 5 μl pre-diluted compound was added to the wells. Following 4-day incubation, 10 μl of the Alamar Blue solution was added to each well and the cells were further incubated for 5 hrs (A2780) or 6 hrs (U87MG) at 37° C. The fluorescence intensity was measured for each well with a Fluorescence plate reader (Fluorskan, Labsystems, 540 nm excitation and 590 nm emission)
(§5) The antiproliferative activity was calculated as percentage of remaining viable cells in treated versus control (untreated cells) conditions. Within an experiment, the result for each experimental condition is the mean of 3 replicate wells. When appropriate, the experiments were repeated to establish full concentration-response curves. When appropriate, IC50-values (concentration of the drug, needed to reduce cell growth to 50% of the control) were computed using probit analysis for graded data (Finney, D. J., Probit Analyses, 2nd Ed. Chapter 10, Graded Responses, Cambridge University Press, Cambridge 1962). Herein the effects of test compounds are expressed as pIC50 (the negative log value of the IC50-value) (see Table 4).

U87MG glioma cells = assay: Alamar Blue cell proliferation assay, U87MG; type: cell-based, human; settings: 4-day incubation; for IC50: Homo sapiens, U-87 MG, 96 h, read-out: U87MG cell proliferation inhibition pIC50 (converted)
Description: The human U87MG glioma cells were cultured in DMEM medium supplemented with 2 mM L-Glutamine, 1 mM Sodium Pyruvate, 1.5 g/L Sodium Bicarbonate, 50 μg/ml gentamicin and 10% heat inactivated fetal calf serum. (U87MG cells are human glioblastoma cells with wild type p53. In this cell line MDM2 tightly controls p53 expression).
as §1, §2, §3, §4, §5

| Structure (SMILES) | IC50 [1] [µM] | IC50 (U87MG glioma cells) [µM] | melting point [°C] | A2780 cell proliferation inhibition pIC50 [1] | U87MG cell proliferation inhibition pIC50 (U87MG glioma cells) | minimal effective concentration (p53 in A2780 cells) [µM] | p53-elisa LAD (p53 in A2780 cells) [µM] |
| --- | --- | --- | --- | --- | --- | --- | --- |
| COc1ccc2c(CCNc3c(Cl)cc(Nc4ccnc5ccccc45)cc3Cl)c[nH]c2c1 [Compound 31] | ~2.57 | 1.32 | 175 | – | – | 1 | – |
| OC1CCc2c(Nc3cc(C(F)(F)F)c(NCCc4c[nH]c5ccccc45)c(C(F)(F)F)c3)ccnc21 (centres unmarked) [Compound 5] | > 10 | > 10 | 178 | – | – | 0.3 | – |
| c1ccc2c(CCNc3ccc(Nc4ccncc4)c4ccccc34)c[nH]c2c1 [Compound 6] | > 10 | 1.58 | 166 | – | – | 1 | – |
| OCc1cc(Nc2cc(Cl)c(NCCc3c[nH]c4ccccc34)c(Cl)c2)ccn1 [Compound 24] | > 10 | > 10 | 115 | – | – | > 10 | – |
| CC(=O)Nc1cc(NCCc2c[nH]c3ccccc23)c(F)cc1Nc1ccncc1 [Compound 50] | > 10 | > 10 | 241 | – | – | > 10 | – |
| COc1c(Nc2ccnc3c2CCC3O)ccc(NCCc2c[nH]c3c(OC)cccc23)c1F (centres unmarked) [Compound 49] | 0.501 | 0.646 | 123 | – | – | 1 | – |
| Fc1cc(Nc2ccncc2)cc(F)c1NCCc1c[nH]c2ccccc12 [Compound 11] | > 10 | 4.9 | 164 | – | – | > 10 | – |
| COc1ccc2c(CCNc3c(F)cc(Nc4ccnc(CO)c4)cc3F)c[nH]c2c1 [Compound 16] | – | – | – | <5 | <5 | – | >10.0 |
| Cc1cc(Nc2ccnc3c2CCC3O)c(Cl)cc1NCCc1c[nH]c2ccccc12 (centres unmarked) [Compound 9] | 4.17 | > 10 | 207 | – | – | > 10 | – |

Continued, in another order:

| IC50 [1] [µM] | IC50 (U87MG glioma cells) [µM] | melting point [°C] | A2780 cell proliferation inhibition pIC50 [1] | U87MG cell proliferation inhibition pIC50 (U87MG glioma cells) | Structure (SMILES) | minimal effective concentration (p53 in A2780 cells) [µM] | p53-elisa LAD (p53 in A2780 cells) [µM] |
| --- | --- | --- | --- | --- | --- | --- | --- |
| 8.32 | 6.92 | 147 | – | – | OC1CCc2c(Nc3cc(F)c(NCCc4c[nH]c5ccccc45)c(F)c3)ccnc21 (centres unmarked) [Compound 17] | 1 | – |
| > 10 | 3.98 | 192 | – | – | OCc1cc(NCCc2c[nH]c3ccccc23)c(Br)cc1Nc1ccnc2ccccc12 [Compound 53] | > 10 | – |
| > 10 | > 10 | 186 | – | – | Cc1[nH]c2ccccc2c1CCNc1c(Cl)cc(Nc2ccnc(CO)c2)cc1Cl [Compound 25] | 3 | – |
| > 10 | > 10 | 245 | – | – | Cl.N#Cc1c(NCCc2c[nH]c3ccccc23)ccc(Nc2ccncc2)c1N1CCOCC1 [Compound 55] | > 10 | – |
| > 10 | > 10 | 187 | – | – | FC(F)(F)c1cc(Nc2ccncc2)cc(C(F)(F)F)c1NCCc1c[nH]c2ccccc12 [Compound 3] | > 10 | – |
| 3.55 | 2.82 | 237 | – | – | Cc1cc(Nc2ccnc3c2CCC3O)c(Cl)cc1NCCc1c[nH]c2c(C)cccc12 (centres unmarked) [Compound 10] | 1 | – |
| > 10 | 7.76 | 163 | – | – | Cc1c(NCCc2c[nH]c3ccccc23)ccc(Nc2ccnc(CO)c2)c1C [Compound 2] | 3 | – |
| > 10 | > 10 | 186 | – | – | Cc1c(NCCc2c[nH]c3ccccc23)ccc(Nc2ccncc2)c1C [Compound 1] | > 10 | – |
| – | – | 110 | – | – | OCc1cc(Nc2cc(F)c(NCCc3c[nH]c4ccccc34)c(F)c2)ccn1 (as salt: hydrochloric acid salt) [Compound 14] | – | – |
